Test results as given in ChEMBL document CHEMBL3352775, “Identification of substituted 3-hydroxy-2-mercaptocyclohex-2-enones as potent inhibitors of human lactate dehydrogenase” (Bioorg Med Chem Lett, 2014).

The compounds below were run against T1, L-lactate dehydrogenase A chain (Homo sapiens, UniProt P00338) (assay: Inhibition of human recombinant carboxy-terminal His-tagged LDHA by UV endpoint assay).

IC50 | SMILES
> 100 µM | O=C1CC(c2ccccc2)CC(O)=C1Sc1ccc(F)cc1F (centres undefined)
> 100 µM | O=C1CC(c2ccccc2)CC(O)=C1Sc1ccccc1 (centres undefined)
53 µM | O=C1CC(c2ccccc2)CC(O)=C1Sc1ccccc1F (centres undefined)
53 µM | O=C1CC(c2ccccc2)CC(O)=C1Sc1ccccc1Br (centres undefined)
> 100 µM | Cc1ccccc1SC1=C(O)CC(c2ccccc2)CC1=O (centres undefined)
> 66 µM | O=C1CC(c2ccccc2)CC(O)=C1Sc1ccccc1C(F)(F)F (centres undefined)
> 100 µM | CCc1ccccc1SC1=C(O)CC(c2ccccc2)CC1=O (centres undefined)
36 µM | O=C1CC(c2ccccc2)CC(O)=C1Sc1ccccc1CO (centres undefined)
> 100 µM | O=C1CC(c2ccccc2)CC(O)=C1Sc1ccccc1O (centres undefined)
> 100 µM | COc1ccccc1SC1=C(O)CC(c2ccccc2)CC1=O (centres undefined)
> 100 µM | O=C1CC(c2ccccc2)CC(O)=C1Sc1ccccc1C(=O)O (centres undefined)
> 100 µM | COC(=O)c1ccccc1SC1=C(O)CC(c2ccccc2)CC1=O (centres undefined)
> 100 µM | NC(=O)c1ccccc1SC1=C(O)CC(c2ccccc2)CC1=O (centres undefined)
> 100 µM | CS(=O)(=O)c1ccccc1SC1=C(O)CC(c2ccccc2)CC1=O (centres undefined)
> 100 µM | O=C1CC(c2ccccc2)CC(O)=C1Sc1cccc(F)c1 (centres undefined)
> 100 µM | O=C1CC(c2ccccc2)CC(O)=C1Sc1cccc(Cl)c1 (centres undefined)
> 100 µM | O=C1CC(c2ccccc2)CC(O)=C1Sc1cccc(Br)c1 (centres undefined)
> 100 µM | Cc1cccc(SC2=C(O)CC(c3ccccc3)CC2=O)c1 (centres undefined)
> 100 µM | O=C1CC(c2ccccc2)CC(O)=C1Sc1cccc(C(F)(F)F)c1 (centres undefined)
> 100 µM | COc1cccc(SC2=C(O)CC(c3ccccc3)CC2=O)c1 (centres undefined)
> 100 µM | O=C1CC(c2ccccc2)CC(O)=C1Sc1cccc(OC(F)(F)F)c1 (centres undefined)
> 100 µM | Nc1cccc(SC2=C(O)CC(c3ccccc3)CC2=O)c1 (centres undefined)

IC50 | SMILES
> 100 µM | NC(=O)c1cccc(SC2=C(O)CC(c3ccccc3)CC2=O)c1 (centres undefined)
> 100 µM | NS(=O)(=O)c1cccc(SC2=C(O)CC(c3ccccc3)CC2=O)c1 (centres undefined)
> 100 µM | O=C1CC(c2ccccc2)CC(O)=C1Sc1ccc(F)cc1 (centres undefined)
> 100 µM | O=C1CC(c2ccccc2)CC(O)=C1Sc1ccc(Cl)cc1 (centres undefined)
> 100 µM | O=C1CC(c2ccccc2)CC(O)=C1Sc1ccc(Br)cc1 (centres undefined)
> 100 µM | Cc1ccc(SC2=C(O)CC(c3ccccc3)CC2=O)cc1 (centres undefined)
> 100 µM | CCc1ccc(SC2=C(O)CC(c3ccccc3)CC2=O)cc1 (centres undefined)
> 100 µM | O=C1CC(c2ccccc2)CC(O)=C1Sc1ccc(C(F)(F)F)cc1 (centres undefined)
> 100 µM | O=C1CC(c2ccccc2)CC(O)=C1Sc1ccc(O)cc1 (centres undefined)
> 100 µM | COc1ccc(SC2=C(O)CC(c3ccccc3)CC2=O)cc1 (centres undefined)
> 100 µM | O=C1CC(c2ccccc2)CC(O)=C1Sc1ccc(C(=O)O)cc1 (centres undefined)
> 100 µM | CSc1ccc(SC2=C(O)CC(c3ccccc3)CC2=O)cc1 (centres undefined)
> 100 µM | Nc1ccc(SC2=C(O)CC(c3ccccc3)CC2=O)cc1 (centres undefined)
> 100 µM | CC(=O)Nc1ccc(SC2=C(O)CC(c3ccccc3)CC2=O)cc1 (centres undefined)
> 100 µM | O=C1CC(c2ccccc2)CC(O)=C1Sc1ccc(Cl)c(Cl)c1 (centres undefined)
> 100 µM | COc1ccc(SC2=C(O)CC(c3ccccc3)CC2=O)cc1OC (centres undefined)
> 100 µM | Cc1ccc(SC2=C(O)CC(c3ccccc3)CC2=O)cc1C (centres undefined)
> 100 µM | O=C1CC(c2ccccc2)CC(O)=C1Sc1cc(Cl)cc(Cl)c1 (centres undefined)
> 100 µM | Cc1cc(C)cc(SC2=C(O)CC(c3ccccc3)CC2=O)c1 (centres undefined)
> 100 µM | O=C1CC(c2ccccc2)CC(O)=C1Sc1cccc(Cl)c1F (centres undefined)
63 µM | O=C1CC(c2ccccc2)CC(O)=C1Sc1cccc(Cl)c1Cl (centres undefined)
12 µM | O=C1CC(c2ccccc2)CC(O)=C1Sc1cc(Cl)ccc1Cl (centres undefined)

IC50 | SMILES
> 100 µM | O=C1CC(c2ccccc2)CC(O)=C1Sc1c(Cl)cccc1Cl (centres undefined)
> 100 µM | Cc1cccc(Cl)c1SC1=C(O)CC(c2ccccc2)CC1=O (centres undefined)
24 µM | O=C1CC(c2ccccc2)CC(O)=C1Sc1ccc(F)cc1Cl (centres undefined)
> 100 µM | Cc1ccc(SC2=C(O)CC(c3ccccc3)CC2=O)c(C)c1 (centres undefined)
> 64 µM | Cc1ccc(C)c(SC2=C(O)CC(c3ccccc3)CC2=O)c1 (centres undefined)
> 100 µM | Cc1cccc(C)c1SC1=C(O)CC(c2ccccc2)CC1=O (centres undefined)
> 100 µM | COc1ccc(OC)c(SC2=C(O)CC(c3ccccc3)CC2=O)c1 (centres undefined)
5.6 µM | O=C1CC(c2ccccc2Cl)CC(O)=C1Sc1ccccc1Cl (centres undefined)
5.6 µM | O=C1CC(c2cccc(Cl)c2)CC(O)=C1Sc1ccccc1Cl (centres undefined)
18 µM | O=C1CC(c2ccc(Cl)cc2)CC(O)=C1Sc1ccccc1Cl (centres undefined)
19 µM | COc1ccc(C2CC(=O)C(Sc3ccccc3Cl)=C(O)C2)cc1 (centres undefined)
3.7 µM | O=C1CC(c2c(F)cccc2Cl)CC(O)=C1Sc1ccccc1Cl (centres undefined)
0.58 µM | O=C1CC(c2c(Cl)cccc2Br)CC(O)=C1Sc1ccccc1Cl (centres undefined)
7.4 µM | O=C1CC(c2c(F)cccc2F)CC(O)=C1Sc1ccccc1Cl (centres undefined)
0.27 µM | O=C1CC(c2c(Br)cccc2Br)CC(O)=C1Sc1ccccc1Cl (centres undefined)
2.3 µM | Cc1cccc(C)c1C1CC(=O)C(Sc2ccccc2Cl)=C(O)C1 (centres undefined)
0.5 µM | O=C1CC(c2c(Cl)ccc(Br)c2Cl)CC(O)=C1Sc1ccccc1Cl (centres undefined)
3.1 µM | N#Cc1ccccc1SC1=C(O)CC(c2ccccc2Cl)CC1=O (centres undefined)
6.8 µM | N#Cc1ccccc1SC1=C(O)CC(c2cccc(Cl)c2)CC1=O (centres undefined)
17 µM | N#Cc1ccccc1SC1=C(O)CC(c2ccc(Cl)cc2)CC1=O (centres undefined)
0.64 µM | N#Cc1ccccc1SC1=C(O)CC(c2c(Cl)cccc2C(F)(F)F)CC1=O (centres undefined)
2.1 µM | Cc1cccc(C)c1C1CC(=O)C(Sc2ccccc2C#N)=C(O)C1 (centres undefined)

IC50 | SMILES
0.18 µM | N#Cc1ccccc1SC1=C(O)CC(c2c(Br)cccc2Br)CC1=O (centres undefined)
> 100 µM | Cc1cccc(CSC2=C(O)CC(c3ccccc3)CC2=O)c1 (centres undefined)
> 100 µM | O=C1CC(c2ccccc2)CC(O)=C1SCc1ccc(F)cc1 (centres undefined)
> 100 µM | O=C1CC(c2ccccc2)CC(O)=C1SC1CCCCC1 (centres undefined)
> 100 µM | CC(C)C(C)SC1=C(O)CC(c2ccccc2)CC1=O (centres undefined)
> 100 µM | CC(C)SC1=C(O)CC(c2ccccc2)CC1=O (centres undefined)
> 100 µM | CCC(C)CSC1=C(O)CC(c2ccccc2)CC1=O (centres undefined)
> 100 µM | O=C1CC(c2ccccc2)CC(O)=C1SCCO (centres undefined)
> 100 µM | COC(=O)CSC1=C(O)CC(c2ccccc2)CC1=O (centres undefined)
> 100 µM | COC(=O)CCSC1=C(O)CC(c2ccccc2)CC1=O (centres undefined)
> 100 µM | O=C1CC(c2ccccc2)CC(O)=C1SCc1ccccc1 (centres undefined)
> 100 µM | Cc1ccccc1CSC1=C(O)CC(c2ccccc2)CC1=O (centres undefined)
> 100 µM | O=C1CC(c2ccccc2)CC(O)=C1SCc1cccc(C(F)(F)F)c1 (centres undefined)
> 100 µM | Cc1ccc(CSC2=C(O)CC(c3ccccc3)CC2=O)cc1 (centres undefined)
> 100 µM | COc1ccc(CSC2=C(O)CC(c3ccccc3)CC2=O)cc1 (centres undefined)
> 100 µM | O=C1CC(c2ccccc2)CC(O)=C1SCc1ccc(Cl)cc1Cl (centres undefined)
> 100 µM | O=C1CC(c2ccccc2)CC(O)=C1Sc1cccc2ccccc12 (centres undefined)
> 100 µM | O=C1CC(c2ccccc2)CC(O)=C1Sc1ccc2ccccc2c1 (centres undefined)
> 100 µM | O=C1CC(c2ccccc2)CC(O)=C1Sc1ccccn1 (centres undefined)
> 100 µM | Cc1cc(C)c(SC2=C(O)CC(c3ccccc3)CC2=O)nc1C#N (centres undefined)
> 100 µM | O=C1CC(c2ccccc2)CC(O)=C1Sc1cccs1 (centres undefined)
> 100 µM | O=C1CC(c2ccccc2)CC(O)=C1Sc1nccs1 (centres undefined)

IC50 | SMILES
> 100 µM | Cc1csc(SC2=C(O)CC(c3ccccc3)CC2=O)n1 (centres undefined)
> 100 µM | O=C1CC(c2ccccc2)CC(O)=C1Sc1ncc[nH]1 (centres undefined)
> 100 µM | O=C1CC(c2ccccc2)CC(O)=C1Sc1nncs1 (centres undefined)
> 100 µM | Cc1nnc(SC2=C(O)CC(c3ccccc3)CC2=O)s1 (centres undefined)
> 100 µM | Nc1nnc(SC2=C(O)CC(c3ccccc3)CC2=O)s1 (centres undefined)
> 100 µM | CSc1nnc(SC2=C(O)CC(c3ccccc3)CC2=O)s1 (centres undefined)
> 100 µM | O=C1CC(c2ccccc2)CC(O)=C1Sc1ncccn1 (centres undefined)
> 100 µM | Cc1ccnc(SC2=C(O)CC(c3ccccc3)CC2=O)n1 (centres undefined)
> 100 µM | Cc1cc(C)nc(SC2=C(O)CC(c3ccccc3)CC2=O)n1 (centres undefined)
> 100 µM | Cc1cnc(SC2=C(O)CC(c3ccccc3)CC2=O)nc1O (centres undefined)
> 100 µM | CCOC(=O)c1cnc(SC2=C(O)CC(c3ccccc3)CC2=O)nc1N (centres undefined)
> 100 µM | Nc1cc(N)nc(SC2=C(O)CC(c3ccccc3)CC2=O)n1 (centres undefined)
> 100 µM | O=C1CC(c2ccccc2)CC(O)=C1Sc1nc(O)cc(C(F)(F)F)n1 (centres undefined)
> 100 µM | O=C1CC(c2ccccc2)CC(O)=C1Sc1nc2ccccc2s1 (centres undefined)
> 100 µM | O=C1CC(c2ccccc2)CC(O)=C1Sc1nc2ccccc2o1 (centres undefined)
> 100 µM | O=C1CC(c2ccccc2)CC(O)=C1Sc1nc2ccc(Cl)cc2[nH]1 (centres undefined)
> 100 µM | Cc1ccc2nc(SC3=C(O)CC(c4ccccc4)CC3=O)[nH]c2c1 (centres undefined)
> 100 µM | Nc1ccc2nc(SC3=C(O)CC(c4ccccc4)CC3=O)[nH]c2c1 (centres undefined)

What follows are compounds tested against L-lactate dehydrogenase B chain (Homo sapiens, UniProt P07195).
Chain of L-lactate dehydrogenase B chain (P07195 whole entry): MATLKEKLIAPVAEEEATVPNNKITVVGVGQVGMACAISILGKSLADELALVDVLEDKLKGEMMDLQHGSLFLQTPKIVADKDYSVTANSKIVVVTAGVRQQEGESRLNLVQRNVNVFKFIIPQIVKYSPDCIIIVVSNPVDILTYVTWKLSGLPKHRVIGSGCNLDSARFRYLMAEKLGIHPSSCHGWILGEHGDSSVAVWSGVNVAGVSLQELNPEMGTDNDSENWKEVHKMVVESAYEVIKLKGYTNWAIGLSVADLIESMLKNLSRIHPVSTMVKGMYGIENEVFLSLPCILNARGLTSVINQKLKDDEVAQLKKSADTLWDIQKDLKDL
Description: Inhibition of human recombinant carboxy-terminal His-tagged LDHB by UV endpoint assay

IC50 | SMILES
6.9 µM | COc1ccc(C2CC(=O)C(Sc3ccccc3Cl)=C(O)C2)cc1 (centres undefined)
5.3 µM | O=C1CC(c2c(F)cccc2Cl)CC(O)=C1Sc1ccccc1Cl (centres undefined)
3.4 µM | O=C1CC(c2c(Cl)cccc2Br)CC(O)=C1Sc1ccccc1Cl (centres undefined)
1.3 µM | O=C1CC(c2c(F)cccc2F)CC(O)=C1Sc1ccccc1Cl (centres undefined)
15 µM | O=C1CC(c2c(Br)cccc2Br)CC(O)=C1Sc1ccccc1Cl (centres undefined)
1.9 µM | Cc1cccc(C)c1C1CC(=O)C(Sc2ccccc2Cl)=C(O)C1 (centres undefined)
> 10 µM | O=C1CC(c2c(Cl)ccc(Br)c2Cl)CC(O)=C1Sc1ccccc1Cl (centres undefined)
6.6 µM | N#Cc1ccccc1SC1=C(O)CC(c2ccccc2Cl)CC1=O (centres undefined)
> 10 µM | N#Cc1ccccc1SC1=C(O)CC(c2cccc(Cl)c2)CC1=O (centres undefined)
> 10 µM | N#Cc1ccccc1SC1=C(O)CC(c2ccc(Cl)cc2)CC1=O (centres undefined)
2.8 µM | N#Cc1ccccc1SC1=C(O)CC(c2c(Cl)cccc2C(F)(F)F)CC1=O (centres undefined)
7.8 µM | Cc1cccc(C)c1C1CC(=O)C(Sc2ccccc2C#N)=C(O)C1 (centres undefined)

These compounds were tested against T1, L-lactate dehydrogenase A chain (assay: Inhibition of human recombinant carboxy-terminal His-tagged LDHA by SPR assay).

Kd | SMILES
8.2 µM | O=C1CC(c2ccccc2Cl)CC(O)=C1Sc1ccccc1Cl (centres undefined)
7.1 µM | O=C1CC(c2cccc(Cl)c2)CC(O)=C1Sc1ccccc1Cl (centres undefined)
27 µM | O=C1CC(c2ccc(Cl)cc2)CC(O)=C1Sc1ccccc1Cl (centres undefined)
13 µM | COc1ccc(C2CC(=O)C(Sc3ccccc3Cl)=C(O)C2)cc1 (centres undefined)
0.49 µM | O=C1CC(c2c(Cl)cccc2Br)CC(O)=C1Sc1ccccc1Cl (centres undefined)
0.37 µM | O=C1CC(c2c(Cl)ccc(Br)c2Cl)CC(O)=C1Sc1ccccc1Cl (centres undefined)
